Entries after “also recorded” stand apart in the source; their conditions may differ. Non-standard residues stand in square brackets, D forms with d. Residues, ends and D or L forms follow the SMILES beside them. *: point of attachment. Nle = CCCC[C@H](N)C(=O)O; Cbz = O=C(OCc1ccccc1)*
Tests used:
[1] = system: Vif-mediated depletion of APOBEC3G-HA in 293T cells; assay: Proteasome inhibitor panel in 293T cells transiently transfected with APOBEC3G-HA and Vif, immunoblot; type: cell-based; conditions: 15 hours
Method: 293T cells were transfected with the indicated amounts of expression vector DNA using the calcium phosphate method. Lysis buffers used for immunoblotting were (1) 100-400 mM NaCl, 50 mM Hepes, 0.2% NP40, 0-5 mM EDTA, 0.1 mM PMSF, plus complete protease inhibitor cocktail (Roche)(1 tablet/50 ml buffer) or (2) 50 mM Hepes, pH 7.2, 135 mM NaCl, 1% Triton X-100, 0.5% deoxycholate, 10% glycerol, 1 mM EDTA, 1× protease inhibitor cocktail (Calbiochem). Samples were analyzed using standard SDS-PAGE techniques.
(§1) For the proteasome inhibitor experiments in transiently transfected cells, 293T cells were transiently transfected with 0.1 μg of APOBEC3G-HA DNA, 2 μg of control vector DNA and 2 μg of either pcDNA3.1 Vif DNA vector or an additional 2 μg of control vector DNA. Twenty-four hours after transfection, the cells were treated with the indicated inhibitor and harvested 15 hours later. For the proteasome inhibitor experiments using infected H9 cells, H9 cells were infected by spinoculation as described above. Forty-four hours after infection, the cells were treated for 16 hours with either dimethylsulfoxide (DMSO) (0.1%) or 0.25 μM epoxomicin. All of the inhibitors (ALLN, MG132, epoxomicin, Calpain Inhibitor III, and clasto-Lactacystin-β-Lactone) were purchased from CalBiochem and were dissolved in DMSO.
To confirm this finding in a different system, a similar experiment was performed using 293T cells transiently transfected with an APOBEC3G-HA expression vector and either a Vif expression vector or a control vector. Twenty-four hours after transfection the cells were treated with a panel of different proteasome inhibitors for a 15-hour period. It was observed that the broadly acting proteasome inhibitors MG132 (12.5 μM) and ALLN (25 μM) as well as the more specific proteasome inhibitor clasto-Lactacystin-β-Lactone ([…], 20 μM) enhanced the levels of APOBEC3G-HA in the presence of Vif when compared to the diluent control sample (0.1% DMSO) (FIG. 8C, lanes 7 through 12).
(§2) FIG. 8A-C. Vif shortens the half-life of APOBEC3G, and proteasome inhibitors partially block the intracellular depletion of APOBEC3G-HA. (A) Pulse-Chase Radiolabeling. HEK 293 cells transiently transfected with APOBEC3G-HA and Vif or control vector DNA were pulse-labeled for 30 min. The initial pulse-labeled (t=0) samples were harvested, and the remaining samples were incubated with chase media for the indicated time points. After immunoprecipitation with anti-HA antibody, the samples were analyzed by SDS-PAGE and the gels were subjected to autoradiography. The relative intensity of the bands were quantified and the Vif (+) and Vif (−) samples were normalized to 1 and graphed (FIG. 8, right side). The T1/2 of APOBEC3G was 1.9 hours in the presence of Vif and 10 hours in the absence of Vif. (B) Proteasome inhibitor studies using infected H9 cells. Mock or HIV-1 wt-infected H9 cells were treated with the broadly active proteasome inhibitor epoxomicin (0.25 μM) or DMSO (0.1%) 44 hours after infection. Sixteen hours following treatment, the cells were harvested; and whole cell lysates were prepared by boiling the cells in Laemmli lysis buffer. Note that Epoxomicin caused an increase in endogenous APOBEC3G levels in the infected sample (compare lane 2 with lane 1). (C) Proteasome inhibitor studies using transiently-transfected 293T cells. Twenty-four hours following transfection of 293T cells with 0.1 μg APOBEC3G and 2 μg Vif or control vector DNA, the cells were treated with the indicated concentration of inhibitor for 15 hours. APOBEC3G-HA levels were elevated in the presence of the proteasome inhibitors MG132, ALLN, and clasto-lactacystin-β-lactone (lanes 8-11), but not in the presence of calpain inhibitor III (lane 12).

[2] = system: APOBEC3G in peripheral blood lymphocytes; assay: PBLs incubated with stimulant for 48 hours, Western blot for APOBEC3G (Example 2); type: cell-based, Human; conditions: incubated with stimulant for 48 hours versus unstimulated
Method: Human peripheral blood lymphocytes (PBLs) were isolated from blood and then incubated with anti-CD3 antibody (α-CD3), anti-CD28 antibody (α-CD28), IL-9, IL-12, IL-13, IL-15, or IFN-γ for 48 hours. Cells were lysed, the lysates clarified, and the protein concentration of the lysates was quantitated. Equal amounts of proteins in the lysates were separated by SDS-PAGE. After separation of the proteins by SDS-PAGE, the proteins were transferred to a membrane, and antibody to APOBEC3G was used to detect APOBEC3G protein on the membrane. The results are depicted in FIGS. 1-13.
FIG. 11 depicts the effect of PHA, anti-CD3 antibody, anti-CD28 antibody, and IL-15 on the level of APOBEC3G in peripheral blood lymphocytes. […] Western blot of cell lysates deriving from stimulated and unstimulated peripheral blood lymphocytes. PBLs were isolated from blood and then incubated with the indicated stimulant for 48 hours. Following separation of the proteins by SDS-PAGE, antibody to APOBEC3G was used to detect APOBEC3G protein. As a loading control, anti-β-actin was used to detect β-actin.

[3] = system: Vif-induced degradation of APOBEC3G (26S proteasome) in H9 cells; assay: Proteasome inhibitor experiment in HIV-1 wt-infected or mock-infected H9 cells, immunoblot of whole cell lysates; type: cell-based, human; conditions: 0.25 μM; for APOBEC3G levels in infected cells compared to DMSO-treated cells: treated 16 hours, 44 hours after infection
Method: as §1
To investigate whether the 26S proteasome might mediate the Vif-induced degradation of APOBEC3G, H9 cells were infected with HIV-1 wt or were mock-infected. […] Whole cell lysates were subsequently prepared by boiling the cells in Laemmli lysis buffer, followed by protein separation by SDS-PAGE and immunoblotting. As expected, APOBEC3G levels were much lower in the infected sample when compared to the uninfected sample (FIG. 8B, lanes 1 and 3).
as §2, with “APOBEC3G-HA levels were elevated in the presence of the proteasome inhibitors MG132, ALLN, and clasto-lactacystin-β-lactone (lanes 8-11), but not in the presence of calpain inhibitor III (lane 12).” left out

CC(C)[C@H](O)[C@@]12NC(=O)[C@H](C)[C@@H]1OC2=O [clasto-Lactacystin-β-Lactone]
levels of APOBEC3G-HA in the presence of Vif compared to diluent control (0.1% DMSO) ([1]; 110 μM, 20 μM): enhanced
levels of APOBEC3G-HA in the presence of Vif compared to diluent control (0.1% DMSO) ([1]; 110 μM, 20 μM, listed as clasto-lactacystin-β-lactone): elevated

CCCCCCCCCCCCCC(=O)O[C@@H]1[C@@H](C)[C@@]2(O)[C@@H](C=C(CO)C[C@]3(O)C(=O)C(C)=C[C@@H]23)[C@@H]2C(C)(C)[C@]12OC(C)=O [PMA, phorbol-12-myristate-13-acetate]
level of APOBEC3G in peripheral blood lymphocytes [2]: upregulated

CC[C@H](C)[C@H](NC(=O)[C@H]([C@@H](C)CC)N(C)C(C)=O)C(=O)N[C@H](C(=O)N[C@@H](CC(C)C)C(=O)[C@@]1(C)CO1)[C@@H](C)O [epoxomicin]
Vif levels ([3]; HIV-1 wt-infected H9 cells, 16 hours): increase
APOBEC3G levels in infected cells compared to DMSO-treated cells ([3]; HIV-1 wt-infected H9 cells): elevated
APOBEC3G levels in infected cells compared to DMSO-treated cells ([3]; HIV-1 wt-infected H9 cells, listed as Epoxomicin): increase
level of APOBEC3G in the uninfected cultures ([3]; mock-infected H9 cells, 16 hours): did not appear to cause a similar increase

CC(C)[C@H](NC(=O)OCc1ccccc1)C(=O)N[C@H](C=O)Cc1ccccc1 [Calpain Inhibitor III] (Cbz-Val-Phe-aldehyde)
levels of APOBEC3G-HA in the presence of Vif compared to diluent control (0.1% DMSO) ([1]; 50 μM): did not cause an increase
levels of APOBEC3G-HA in the presence of Vif compared to diluent control (0.1% DMSO) ([1]; 50 μM, listed as calpain inhibitor III): not

IL-15: cytokine
level of APOBEC3G in peripheral blood lymphocytes [2]: increased expression

CC(=O)O[C@@]12C[C@@H](C)[C@@]3(O)[C@@H](C=C(CO)C[C@]4(O)C(=O)C(C)=C[C@@H]34)[C@@H]1C2(C)C [prostratin, 12-deoxyphorbol-13-acetate]
level of APOBEC3G in peripheral blood lymphocytes [2]: upregulated

CCCC[C@@H](C=O)NC(=O)[C@H](CC(C)C)NC(=O)[C@H](CC(C)C)NC(C)=O [ALLN] (Ac-Leu-Leu-[Nle]-aldehyde)
levels of APOBEC3G-HA in the presence of Vif compared to diluent control (0.1% DMSO) ([1]; 25 μM): enhanced; also recorded: elevated
